What all share (type): cell-based
Assay [1] relates to Wnt activity (SW480 colon carcinoma cells stably expressing the Sp5-Luc reporter gene). In words: Sp5-Luc reporter gene screening assay for Wnt activity. The conditions noted are these: Homo sapiens. The procedure, abridged:
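The SW480 cells carry a lentiviral luciferase reporter driven by a Sp5 promoter with eight TCF/LEF sites. They were plated at 10,000 cells/well in 10% FCS overnight, then pinned with 50 nl of 3-fold dilutions (10 mM top source concentration) into 50 μl.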

Assay [2] deals with primary human mesenchymal stem cells (hMSCs). The experiment in a line: Chondrogenesis induction in primary human mesenchymal stem cells (chondrogenic nodules, Rhodamine B / Nile Red). The conditions noted are these: Homo sapiens, Mesenchymal stem cells, 144 h, 6 days, concentration required to induce chondrogenesis equivalent to TGF-β3 10 ng/mL, read-out: Conc (nM) of 100% TGF-β3 activity. The procedure: The above synthesized compounds were screened using primary human mesenchymal stem cells (hMSCs) to determine their ability to induce chondrogenesis (process by which cartilage is developed).
Primary human mesenchymal stem cells (hMSCs) were purchased from Lonza (Walkersville, Md.) and expanded in Mesenchymal Stem Cell Growth Media (Lonza). Cells between passage 3 and 6 were used for the experiments.
Each compound was dissolved in DMSO as a 10 mM stock and used to prepare compound source plates. Serial dilution (1:3, 6-point dose-response curves from 2700 nM to 10 nM) and compound transfer was performed using the ECHO 550 (Labcyte, Sunnyvale, Calif.) into 96-well clear bottom assay plates (Greiner Bio-One) with appropriate DMSO backfill for a final DMSO concentration of 0.03%. hMSCs were plated at 20,000 cells/well in 250 μL/well Incomplete Chondrogenic Induction Medium (Lonza; DMEM, dexamethasone, ascorbate, insulin-transferrin-selenium [ITS supplement], gentamycin-amphotericin [GA-1000], sodium pyruvate, proline and L-glutamine). TGF-β3 (10 ng/mL) was used as a positive control for differentiation while negative control wells were treated with 75 nL DMSO for normalization and calculating EC50 values. Cells were incubated at 37° C. and 5% CO2 for 6 days. To image chondrogenic nodules, the cells were fixed using 4% formaldehyde (Electron Microscopy Sciences), and stained with 2 μg/mL Rhodamine B (Sigma-Aldrich) and 20 μM Nile Red (Sigma-Aldrich) [Johnson K., et. al, A Stem Cell-Based Approach to Cartilage Repair, Science, (2012), 336(6082). 717-721]. The nodules imaged (4 images per well at 4× magnification) by excitation at 531 nm and emission at 625 nm and quantified using the CellInsight CX5 (Thermo Scientific). Number of nodules in each well was normalized to the average of 3 DMSO treated wells on the same plate using Excel (Microsoft Inc.). The normalized averages (fold change over DMSO) of 3 replicate wells for each compound concentration were calculated. Due to solubility limitations of some of the compounds, curve fitting was incomplete leading to inaccurate EC50 determinations.
Using TGF-β3 as a positive control, the concentration of test compounds required to induce equivalent levels of chondrogenesis is reported. In addition, the maximum activity of each compound and the respective dose that each compound reached maximum chondrogenesis activity is reported.

The test system of assay [3] is primary human fibroblasts derived from IPF patients (LL29 cells). The experiment in a line: Inhibition of the fibrotic process in TGF-β1 treated IPF patient fibroblasts (αSMA staining). The conditions noted are these: Fibroblast, 96 h, LL29 cells treated with TGF-β1 (20 ng/mL), 4 days, read-out: Inhibition of fibrosis EC50. From the text:
The above synthesized compounds were screened using primary human fibroblasts (derived from IPF patients) treated with TGF-β1 to determine their ability to inhibit the fibrotic process.
Primary human fibroblasts derived from IPF patients (LL29 cells) [^1Xiaoqiu Liu, et. al., “Fibrotic Lung Fibroblasts Show Blunted Inhibition by cAMP Due to Deficient cAMP Response Element-Binding Protein Phosphorylation”, Journal of Pharmacology and Experimental Therapeutics (2005), 315(2), 678-687; ^2Watts, K. L., et. al., “RhoA signaling modulates cyclin D1 expression in human lung fibroblasts; implications for idiopathic pulmonary fibrosis”, Respiratory Research (2006), 7(1), 88] were obtained from American Type Culture Collection (ATCC) and expanded in F12 medium supplemented with 15% Fetal Bovine Serum and Penicillin/Streptomycin.
Each compound was dissolved in DMSO as a 10 mM stock and used to prepare compound source plates. Serial dilution (1:2, 11-point dose-response curves from 10 μM to 1.87 nM) and compound transfer was performed using the ECHO 550 (Labcyte, Sunnyvale, Calif.) into 384-well clear bottom assay plates (Greiner Bio-One) with appropriate DMSO backfill for a final DMSO concentration of 0.1%. LL29 cells were plated at 1,500 cells/well in 80 μl/well F12 medium supplemented with 1% Fetal Bovine Serum. One hour after addition of the cells, TGF-β1 (Peprotech; 20 ng/mL) was added to the plates to induce fibrosis (ref. 1 and 2 above). Wells treated with TGF-β1 and containing DMSO were used as controls. Cells were incubated at 37° C. and 5% CO2 for 4 days. Following incubation for 4 days, SYTOX green nucleic acid stain (Life Technologies [Thermo Fisher Scientific]) was added to the wells at a final concentration of 1 uM and incubated at room temperature for 30 min. Cells were then fixed using 4% formaldehyde (Electron Microscopy Sciences), washed 3 times with PBS followed by blocking and permeabilization using 3% Bovine Serum Albumin (BSA; Sigma) and 0.3% Triton X-100 (Sigma) in PBS. Cells were then stained with antibody specific to α-smooth muscle actin (αSMA; Abcam) (ref. 1 and 2 above) in 3% Bovine Serum Albumin (BSA; Sigma) and 0.3% Triton X-100 (Sigma) in PBS, and incubated overnight at 4° C. Cells were then washed 3 times with PBS, followed by incubation with Alexa Flor-647 conjugated secondary antibody (Life Technologies [Thermo Fisher Scientific]) and DAPI at room temperature for 1 hour. Cells were then washed 3 times with PBS and plates were sealed for imaging. αSMA staining was imaged by excitation at 630 nm and emission at 665 nm and quantified using the Compartmental Analysis program on the CellInsight CX5 (Thermo Scientific). Dead or apoptotic cells were excluded from analysis based on positive SYTOX green staining. % of total cells positive for αSMA were counted in each well and normalized to the average of 11 wells treated with TGF-β1 on the same plate using Dotmatics' Studies Software. The normalized averages (fold change over untreated) of 3 replicate wells for each compound concentration were used to create dose-responses curves and EC50 values were calculated using non-linear regression curve fit in the Dotmatics' Studies Software. The EC50 values are reported.

pEC50, pIC50: −log10 of the molar value.

`CC(C)Nc1cncc(-c2cnc3[nH]nc(-c4nc5c(-c6cccnc6)ccnc5[nH]4)c3c2)c1` [Compound 75, N-Isopropyl-5-(3-(7-(pyridin-3-yl)-3H-imidazo[4,5-b]pyridin-2-yl)-1H-pyrazolo[3,4-b]pyridin-5-yl)pyridin-3-amine] gave a pIC50 in assay [1] of 7.34. Moreover, the EC (100% of TGF-beta3 activity) in assay [2] was found to be 58.5 nM.

`Cc1cn(-c2ccnc3[nH]c(-c4n[nH]c5ncc(-c6cncc(NC(=O)CC(C)C)c6)cc45)nc23)cn1` [Compound 160, 3-Methyl-N-(5-(3-(7-(4-methyl-1H-imidazol-1-yl)-3H-imidazo[4,5-b]pyridin-2-yl)-1H-pyrazolo[3,4-b]pyridin-5-yl)pyridin-3-yl)butanamide]: the pIC50 in assay [1] was 8.08. Moreover, in assay [2], the EC (100% of TGF-beta3 activity) stood at 26.8 nM.

In assay [1], `CS(=O)(=O)NCc1cc(F)cc(-c2ccnc3[nH]c(-c4n[nH]c5ncc(-c6cncnc6)cc45)nc23)c1` [Compound 414, N-(3-Fluoro-5-(2-(5-(pyrimidin-5-yl)-1H-pyrazolo[3,4-b]pyridin-3-yl)-3H-imidazo[4,5-b]pyridin-7-yl)benzyl)methanesulfonamide] gave a negative-log IC50 (pIC50) of under 5.00. Besides, the pEC50 in assay [3] was at most 5.00.

Consider `CC(C)Nc1cncc(-c2cnc3[nH]nc(-c4nc5c(-c6cc(F)cc(NCCN(C)C)c6)ccnc5[nH]4)c3c2)c1` [Compound 426, N^1-(3-Fluoro-5-(2-(5-(5-(isopropylamino)pyridin-3-yl)-1H-pyrazolo [3,4-b]pyridin-3-yl)-3H-imidazo[4,5-b]pyridin-7-yl)phenyl)-N^2,N^2-dimethylethane-1,2-diamine], for which the pIC50 in assay [1] was 6.89. In assay [3], the pEC50 is 6.54.

As to `CCCCC(=O)Nc1cncc(-c2cnc3[nH]nc(-c4nc5c(-c6cc(F)cc(NCCN(C)C)c6)ccnc5[nH]4)c3c2)c1` [Compound 432, N-(5-(3-(7-(3-((2-(Dimethylamino)ethyl)amino)-5-fluorphenyl)-3H-imidazo[4,5-b]pyridin-2-yl)-1H-pyrazolo[3,4-b]pyridin-5-yl)pyridin-3-yl)pentanamide], in assay [1], the pIC50 was 7.66. In addition, in assay [2], the EC (100% of TGF-beta3 activity) came out at 57 nM.

As for `Fc1cccc(-c2ccnc3[nH]c(-c4n[nH]c5ncc(C6CCNCC6)cc45)nc23)c1` [Compound 909, 3-(7-(3-Fluorophenyl)-3H-imidazo[4,5-b]pyridin-2-yl)-5-(piperidin-4-yl)-1H-pyrazolo[3,4-b]pyridine], the negative-log IC50 (pIC50) in assay [1] is under 5.00. Besides, in assay [3], the pEC50 is at most 5.00.

As to `Fc1cccc(-c2ccnc3[nH]c(-c4n[nH]c5ncc(C6=CCNCC6)cc45)nc23)c1` [Compound 910, 3-(7-(3-Fluorophenyl)-3H-imidazo[4,5-b]pyridin-2-yl)-5-(1,2,3,6-tetrahydropyridin-4-yl)-1H-pyrazolo[3,4-b]pyridine], in assay [1], the negative logarithm of the IC50 (pIC50) was under 5.00. Moreover, the pEC50 in assay [3] is at most 5.00.

In the case of `Cn1cc(-c2cnc3[nH]nc(-c4nc5c(-c6cccc(F)c6)ccnc5[nH]4)c3c2)cn1` [Compound 912, 3-(7-(3-Fluorophenyl)-3H-imidazo[4,5-b]pyridin-2-yl)-5-(1-methyl-1H-pyrazol-4-yl)-1H-pyrazolo[3,4-b]pyridine], the pIC50 in assay [1] was 6.66. The pEC50 in assay [3] was 6.93.

In assay [1], `Fc1cccc(-c2ccnc3[nH]c(-c4n[nH]c5ncc(-c6cncc(OC7CCNCC7)c6)cc45)nc23)c1` [Compound 916, 3-(7-(3-Fluorophenyl)-3H-imidazo[4,5-b]pyridin-2-yl)-5-(5-(piperidin-4-yloxy)pyridin-3-yl)-1H-pyrazolo[3,4-b]pyridine] gave a pIC50 of under 5.00. The pEC50 in assay [3] is at least 8.05.

`CN(C)CCOc1cncc(-c2cnc3[nH]nc(-c4nc5c(-c6cccc(F)c6)ccnc5[nH]4)c3c2)c1` [Compound 919, 2-((5-(3-(7-(3-Fluorophenyl)-3H-imidazo[4,5-b]pyridin-2-yl)-1H-pyrazolo [3,4-b]pyridin-5-yl)pyridin-3-yl)oxy)-N,N-dimethylethan-1-amine] had a pIC50 in assay [1] of under 5.00. Moreover, the pEC50 in assay [3] was at least 8.05.

Turning to `COc1cncc(-c2cnc3[nH]nc(-c4nc5c(-c6cccc(F)c6)ccnc5[nH]4)c3c2)c1` [Compound 920, 3-(7-(3-Fluorophenyl)-3H-imidazo[4,5-b]pyridin-2-yl)-5-(5-methoxypyridin-3-yl)-1H-pyrazolo[3,4-b]pyridine], the pIC50 in assay [1] was 5.98. The negative-log EC50 (pEC50) in assay [3] was at least 8.05.

Take `Oc1cncc(-c2cnc3[nH]nc(-c4nc5c(-c6cccc(F)c6)ccnc5[nH]4)c3c2)c1` [Compound 921, 5-(3-(7-(3-Fluorophenyl)-3H-imidazo[4,5-b]pyridin-2-yl)-1H-pyrazolo[3,4-b]pyridin-5-yl)pyridin-3-ol]: the pIC50 in assay [1] is 7.57. Moreover, the pEC50 in assay [3] is 6.79.

Regarding `Fc1cccc(-c2ccnc3[nH]c(-c4n[nH]c5ncc(-c6ccncc6)cc45)nc23)c1` [Compound 924, 3-(7-(3-Fluorophenyl)-3H-imidazo[4,5-b]pyridin-2-yl)-5-(pyridin-4-yl)-1H-pyrazolo[3,4-b]pyridine], in assay [1], the negative logarithm of the IC50 (pIC50) was under 5.00. The pEC50 in assay [3] is at most 5.00.

In the case of `Fc1cccc(-c2ccnc3[nH]c(-c4n[nH]c5ncc(-c6ccccn6)cc45)nc23)c1` [Compound 925, 3-(7-(3-Fluorophenyl)-3H-imidazo[4,5-b]pyridin-2-yl)-5-(pyridin-2-yl)-1H-pyrazolo[3,4-b]pyridine], the pIC50 in assay [1] is under 5.00. For the same molecule, the pEC50 in assay [3] is at most 5.00.

`Fc1cccc(-c2ccnc3[nH]c(-c4n[nH]c5ncc(-c6cnccn6)cc45)nc23)c1` [Compound 926, 3-(7-(3-Fluorophenyl)-3H-imidazo[4,5-b]pyridin-2-yl)-5-(pyrazin-2-yl)-1H-pyrazolo[3,4-b]pyridine] showed a pIC50 in assay [1] of under 5.00. For the same molecule, in assay [3], the pEC50 is 7.89.

On to `CN(C)CC(=O)Nc1cncc(-c2cnc3[nH]nc(-c4nc5c(-c6cccc(F)c6)ccnc5[nH]4)c3c2)c1` [Compound 1409, 2-(Dimethylamino)-N-(5-(3-(7-(3-fluorophenyl)-3H-imidazo[4,5-b]pyridin-2-yl)-1H-pyrazolo[3,4-b]pyridin-5-yl)pyridin-3-yl)acetamide], for which, in assay [1], the pIC50 was 5.40. The pEC50 in assay [3] was at least 8.05.

What is called pIC50 is the negative decadic logarithm of the IC50, by convention in mol/L. Lower therefore signals a large IC50. One may read the pEC50 as the EC50 on a negative log10 scale, so that one unit is a factor of ten.
